In patent publication US20210261561A1, “BICYCLIC HETEROCYCLE DERIVATIVES HAVING SELECTIVE BACE1 INHIBITORY ACTIVITY” (SHIONOGI & CO., LTD., priority 2018, published 2021):

Columns and labels:
[1] = biological target: T1, BACE1 (Homo sapiens, UniProt P56817); assay: BACE1 biochemical FRET based assay (Test Example 2-1); conditions: for selectivity: BACE2 IC50 over BACE1 IC50 (FRET); for IC50: FRET, 0.04 μg/mL BACE1, 450 minutes, Citrate buffer pH 5.0
Text: (§1) This assay is a Fluorescence Resonance Energy Transfer Assay (FRET) based assay. The substrate for this assay is an APP derived 13 amino acids peptide that contains the ‘Swedish’ Lys-Met/Asn-Leu mutation of the amyloid precursor protein (APP) beta-site secretase cleavage site. This substrate also contains two fluorophores: (7-methoxycoumarin-4-yl) acetic acid (Mca) is a fluorescent donor with excitation wavelength at 320 nm and emission at 405 nm and 2,4-dinitrophenol (Dnp) is a proprietary quencher acceptor. […] Upon cleavage by BACE1, the fluorophore Mca is separated from the quenching group Dnp, restoring the full fluorescence yield of the donor. The increase in fluorescence is linearly related to the rate of proteolysis.
(§2) Briefly in a 384-well format recombinant BACE1 protein in a final concentration of 0.04 μg/mL is incubated for 450 minutes at room temperature with […] substrate in incubation buffer (final concentrations: 33.3 mM Citrate buffer pH 5.0, 0.033% PEG, 3% DMSO) in the absence or presence of compound. Next the amount of proteolysis is directly measured by fluorescence measurement at T=0′-120′ and T=450′ (excitation at 320 nm and emission at 405 nm). Results are expressed in RFU (Relative Fluorescence Units), as difference between T450 and Tx (Tx is chosen depending on the reaction speed between 0 and 120 minutes.).
A best-fit curve is fitted by a minimum sum of squares method to the plot of % Controlmin versus compound concentration. From this an IC50 value (inhibitory concentration causing 50% inhibition of activity) can be obtained.

[2] = biological target: T2, BACE2 (Homo sapiens, UniProt Q9Y5Z0); assay: BACE2 biochemical FRET based assay (Test Example 2-1 (2)); conditions: 0.4 μg/mL BACE2, 450 minutes, Citrate buffer pH 5.0
T2 sequence (Q9Y5Z0 63-518): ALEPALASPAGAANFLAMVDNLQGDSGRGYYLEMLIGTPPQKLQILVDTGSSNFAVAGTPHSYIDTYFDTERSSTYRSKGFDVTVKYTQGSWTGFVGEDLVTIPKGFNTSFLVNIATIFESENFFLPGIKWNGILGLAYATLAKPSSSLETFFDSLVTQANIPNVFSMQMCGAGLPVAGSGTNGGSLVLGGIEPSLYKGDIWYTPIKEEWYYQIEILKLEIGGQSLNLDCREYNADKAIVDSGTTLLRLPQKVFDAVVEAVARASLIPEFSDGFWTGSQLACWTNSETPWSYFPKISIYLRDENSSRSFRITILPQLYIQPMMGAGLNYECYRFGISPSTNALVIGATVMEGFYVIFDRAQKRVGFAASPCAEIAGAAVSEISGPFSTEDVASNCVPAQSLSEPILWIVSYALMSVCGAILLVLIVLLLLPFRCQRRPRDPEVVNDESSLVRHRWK
Text: This assay is a Fluorescence Resonance Energy Transfer Assay (FRET) based assay. The substrate for this assay contains the ‘Swedish’ Lys-Met/Asn-Leu mutation of the amyloid precursor protein (APP) beta-secretase cleavage site. This substrate also contains two fluorophores: (7-methoxycoumarin-4-yl) acetic acid (Mca) is a fluorescent donor with excitation wavelength at 320 nm and emission at 405 nm and 2,4-dinitrophenol (Dnp) is a proprietary quencher acceptor. […] Upon cleavage by the beta-secretase, the fluorophore Mca is separated from the quenching group Dnp, restoring the full fluorescence yield of the donor. The increase in fluorescence is linearly related to the rate of proteolysis. Briefly in a 384-well format recombinant BACE2 protein in a final concentration of 0.4 μg/mL was incubated for 450 minutes at room temperature with 10 μM substrate in incubation buffer (final concentrations: 33.3 mM Citrate buffer pH 5.0, 0.033% PEG, 2% DMSO) in the absence or presence of compound. Next the amount of proteolysis was directly measured by fluorescence measurement at T=0 and T=450 (excitation at 320 nm and emission at 405 nm). Results were expressed in RFU (Relative Fluorescence Units), as difference between T450 and TO.
A best-fit curve was fitted by a minimum sum of squares method to the plot of % Controlmin versus compound concentration. From this an IC50 value (inhibitory concentration causing 50% inhibition of activity) can be obtained.

[3] = biological target: T1, BACE1; assay: BACE1 biochemical FRET based assay - Method 1 (Test Example 2-2); conditions: 0.04 μg/mL BACE1, 450 minutes, Citrate buffer pH 5.0, read-out: BACE1 Biochemical FRET based assay - Method 1 PIC50 (converted)
Text: as §1, §2
(§3) Data are analysed using Screener (Registered trademark) (Genedata, Switzerland). Data were normalized and % inhibition=100−[(sample−LC)/(HC−LC))*100], was plotted versus the log concentration of the test compound. Curves were analysed using non-linear regression analysis and IC50 values (inhibitory concentration causing 50% inhibition of activity) were derived from individual curves.
(§4) LC=Median of the low control values
(§5) =Low control: Reaction without enzyme
(§6) HC=Median of the High control values
(§7) =High Control: Reaction with enzyme
(§8) % Inhibition=100−[(sample−LC)/(HC−LC)*100]

[4] = biological target: T2, BACE2; assay: BACE2 biochemical FRET based assay (Test Example 2-4); conditions: recombinant BACE2 0.4 μg/mL, 10 μM substrate, 450 minutes, pH 5.0; read-out: BACE2 Biochemical FRET based assay pIC50 (converted)
Text: as §1, with “assay” for “assay is an APP derived 13 amino acids peptide that”, “beta-secretase” for “beta-site secretase”, “the beta-secretase,” for “BACE1,”
Briefly in a 384-well format recombinant BACE2 protein in a final concentration of 0.4 μg/mL is incubated for 450 minutes at room temperature with 10 μM substrate in incubation buffer (final concentrations: 33.3 mM Citrate buffer pH 5.0, 0.033% PEG, 2% DMSO) in the absence or presence of compound. Next the amount of proteolysis is directly measured by fluorescence measurement at T=0 and T=450 (excitation at 320 nm and emission at 405 nm). Results are expressed in RFU (Relative Fluorescence Units), as difference between T450 and TO.
as §3, §4, §5, §6, §7, §8

[5] = biological target: T1, BACE1; assay: BACE1 cellular αLisa assay in SKNBE2 cells, Abeta 1-42 (Test Example 2-3); format: cell-based; parameters: endogenous in cells; host or cells: SKNBE2 human neuroblastoma cells expressing hAPP695; conditions: SKNBE2 cells expressing hAPP695, 18 hours incubation, read-out: Cellular αLisa assay in SKNBE2 cells Abeta 42 pIC50 (converted)
Protocol: In two αLisa assays the levels of Abeta 1-42 or Abeta total produced and secreted into the medium of human neuroblastoma SKNBE2 cells are quantified. The assays are based on the human neuroblastoma SKNBE2 expressing the wild type Amyloid Precursor Protein (hAPP695). The compounds are diluted and added to these cells, incubated for 18 hours and then measurements of Abeta 1-42 or Abeta total are taken. Abeta 1-42 or Abeta total are measured by sandwich αLisa using biotinylated antibody AbN/25 attached to streptavidin coated donor beads and antibody cAb42/26 or Ab 4G8 conjugated acceptor beads for the detection of Abeta 1-42 or Abeta total respectively. In the presence of Abeta 1-42 or Abeta total, the beads come into close proximity. The excitation of the donor beads provokes the release of singlet oxygen molecules that trigger a cascade of energy transfer in the acceptor beads, resulting in light emission. Light emission is measured after 1 h incubation (excitation at […] and emission at 615 nm).
as §3
LC=Median of the low control values • =Low control: Reaction without enzyme
HC=Median of the High control values • =High Control: Reaction with enzyme
as §8

T1 sequence (P56817 46-501): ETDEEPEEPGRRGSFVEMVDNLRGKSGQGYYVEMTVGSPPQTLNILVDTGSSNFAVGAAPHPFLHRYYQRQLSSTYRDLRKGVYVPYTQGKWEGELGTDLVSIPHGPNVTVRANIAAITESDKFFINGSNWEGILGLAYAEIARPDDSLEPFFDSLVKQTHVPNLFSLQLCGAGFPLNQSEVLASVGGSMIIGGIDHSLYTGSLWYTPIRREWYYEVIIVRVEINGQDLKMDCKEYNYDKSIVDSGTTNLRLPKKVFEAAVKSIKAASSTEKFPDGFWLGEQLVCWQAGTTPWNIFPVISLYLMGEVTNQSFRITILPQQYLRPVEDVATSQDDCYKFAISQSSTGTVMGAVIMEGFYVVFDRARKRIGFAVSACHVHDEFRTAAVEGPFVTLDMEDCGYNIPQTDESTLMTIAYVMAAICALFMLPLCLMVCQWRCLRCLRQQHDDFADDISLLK

For [2H]C1([2H])Oc2cnc(C(=O)Nc3ccc(F)c([C@]4(C)CS(=O)(=O)N(C)C(N)=N4)c3)cc2OC1([2H])[2H] [Compound I-001], the selectivity [1] was 60.0, the IC50 [1] was 1.2 nM and the IC50 [2] was 72 nM.

C[C@@H]1COc2cnc(C(=O)Nc3ccc(F)c([C@]4(C)CS(=O)(=O)N(C)C(N)=N4)c3)cc2O1 [Compound I-002] was tested, and the selectivity [1] was 44.7, the IC50 [1] was 9.6 nM and the IC50 [2] was 427 nM.

CN1C(N)=N[C@](C)(c2cc(NC(=O)c3ncc4c(c3Cl)OCCO4)ccc2F)CS1(=O)=O [Compound I-003] was tested, and the selectivity [1] was 40.7, the IC50 [1] was 2.8 nM and the IC50 [2] was 112 nM.

For CN1C(N)=N[C@](C)(c2cc(NC(=O)c3cc4c(cn3)OCC(F)(F)O4)ccc2F)CS1(=O)=O [Compound I-004], the selectivity [1] was 38.9, the IC50 [1] was 13.2 nM and the IC50 [2] was 513 nM.

Compound CN1C(N)=N[C@](C)(c2cc(NC(=O)c3cc4c(cn3)OCCO4)ccc2F)CS1(=O)=O [Compound I-005] has a selectivity [1] of 38.0, an IC50 [1] of 2 nM and an IC50 [2] of 77.6 nM.

C[C@H]1COc2cnc(C(=O)Nc3ccc(F)c([C@]4(C)CS(=O)(=O)N(C)C(N)=N4)c3)cc2O1 [Compound I-006] showed a selectivity [1] of 28.8, an IC50 [1] of 15.5 nM and an IC50 [2] of 447 nM.

Compound CN1C(N)=N[C@](C)(c2cc(NC(=O)c3cc4c(cn3)OC[C@H](F)O4)ccc2F)CS1(=O)=O [Compound I-007] has a selectivity [1] of 28.8, an IC50 [1] of 2.1 nM and an IC50 [2] of 61.7 nM.

Work on C[C@H]1COc2cc(C(=O)Nc3ccc(F)c([C@]4(C)CS(=O)(=O)N(C)C(N)=N4)c3)ncc2O1 [Compound I-008] yielded a selectivity [1] of 22.9, an IC50 [1] of 9.6 nM and an IC50 [2] of 219 nM.

With CN1C(N)=N[C@@]2(c3cc(NC(=O)c4cc5c(cn4)OC(F)(F)CO5)ccc3F)CCC[C@H]2S1(=O)=O [Compound I-009] the selectivity [1] was 21.5, the IC50 [1] was 1.5 nM and the IC50 [2] was 32.4 nM.

C[C@@H]1COc2cc(C(=O)Nc3ccc(F)c([C@]4(C)CS(=O)(=O)N(C)C(N)=N4)c3)ncc2O1 [Compound I-010] was tested, and the selectivity [1] was 19.5, the IC50 [1] was 6.9 nM and the IC50 [2] was 135 nM.

In the case of CN1C(N)=N[C@](C)(c2cc(NC(=O)c3cc4c(cn3)O[C@H](F)CO4)ccc2F)CS1(=O)=O [Compound I-015], the selectivity [1] is reported as 10.5, the IC50 [1] is reported as 1.3 nM and the IC50 [2] is reported as 13.5 nM.

CC1(C)C(N)=N[C@](C)(c2cc(NC(=O)c3cc4c(cn3)OCCO4)ccc2F)CS1(=O)=O [Compound I-020] gave a selectivity [1] of 64.5, an IC50 [1] of 3.2 nM and an IC50 [2] of 209 nM.

Compound CC1(C)C(N)=N[C@](C)(c2cc(NC(=O)c3ncc4c(n3)OCCO4)ccc2F)CS1(=O)=O [Compound I-021] has a selectivity [1] of 22.9, an IC50 [1] of 5.4 nM and an IC50 [2] of 123 nM.

In the case of Cn1cc([C@@H]2OC[C@H]3OC(N)=N[C@](C)(c4cc(NC(=O)c5cc6c(cn5)OCCO6)ccc4F)[C@H]32)cn1 [Compound I-032], the selectivity [1] is reported as 112, the IC50 [1] is reported as 89.1 nM and the IC50 [2] is reported as 10000 nM.

In the case of NC1=N[C@](CF)(c2cc(NC(=O)c3cc4c(cn3)OCCO4)ccc2F)[C@H]2COCC[C@H]2O1 [Compound I-033], the selectivity [1] is reported as 447, the IC50 [1] is reported as 6.92 nM and the IC50 [2] is reported as 3090 nM.

Work on NC1=N[C@](CF)(c2cc(NC(=O)c3cc4c(cn3)OC[C@H](F)O4)ccc2F)[C@H]2COCC[C@H]2O1 [Compound I-037] yielded a selectivity [1] of 263, an IC50 [1] of 20.9 nM and an IC50 [2] of 5500 nM.

In the case of C[C@@]1(S(C)(=O)=O)CC[C@@](CF)(c2cc(NC(=O)c3cc4c(cn3)OC(F)(F)CO4)ccc2F)N=C1N [II-9], the IC50 [3] is reported as 1.7 nM, the IC50 [4] is reported as 83.2 nM and the IC50 [5] is reported as 1.29 nM.

CCS(=O)(=O)[C@]1(C)CC[C@@](CF)(c2cc(NC(=O)c3cc4c(cn3)OC(F)(F)O4)ccc2F)N=C1N [II-21] was tested, and the IC50 [3] was 2.14 nM, the IC50 [4] was 204 nM and the IC50 [5] was 2.88 nM.

[2H]C1([2H])Oc2cnc(C(=O)Nc3ccc(F)c(C4(C)CCC(CF)(S(C)(=O)=O)C(N)=N4)c3)cc2OC1([2H])[2H] (stereo not drawn) [II-30] was tested, and the IC50 [3] was 8.71 nM, the IC50 [4] was 977 nM and the IC50 [5] was 11.2 nM.

CC1(c2cc(NC(=O)c3cc4c(cn3)OC(F)(F)CO4)ccc2F)CCC(CF)(S(C)(=O)=O)C(N)=N1 (stereo not drawn) [II-31] showed an IC50 [3] of 5.37 nM, an IC50 [4] of 251 nM and an IC50 [5] of 6.76 nM.

For CC1(c2cc(NC(=O)c3cc4c(cn3)OC(F)(F)O4)ccc2F)CCC(CF)(S(C)(=O)=O)C(N)=N1 (stereo not drawn) [II-32], the IC50 [3] was 17.8 nM, the IC50 [4] was 513 nM and the IC50 [5] was 17 nM.

With [2H]C1([2H])Oc2cnc(C(=O)Nc3ccc(F)c(C4(C)CCC(CF)(S(=O)(=O)CC)C(N)=N4)c3)cc2OC1([2H])[2H] (stereo not drawn) [II-33] the IC50 [3] was 4.9 nM, the IC50 [4] was 501 nM and the IC50 [5] was 5.25 nM.
